In ChEMBL document CHEMBL1122049, “Synthesis and in vitro antimicrobial activity of 5-substituted 2H-1,3,5-thiadiazine-2,4(3H)-diones” (1982) one finds MIC data, which are given here for 14 compounds.

The structures appear in SMILES notation. ≈ marks a conversion by molar mass, not a printed value. Bounds are passed on as bounds.

One assay has as its system Candida albicans. The assay can be described thus: Minimum inhibitory concentration against Candida albicans in Sabouraud dextrose broth by using […]. The class given is functional.
In the next assay the test system is Trichophyton benhamiae. The assay can be described thus: Minimum inhibitory concentration against Trichophyton mentagrophytes in Sabouraud dextrose broth by using […]. The class given is functional, Arthroderma benhamiae.

What is called MIC is the least concentration at which growth counts as inhibited.

With `O=c1nc(Cc2ccccc2)sc(=O)[nH]1`, the MIC in the assay on Candida albicans was 125 µg/mL (≈ 568 µM); in the assay on Trichophyton benhamiae it was below 2 µg/mL.

As for `CC(C)c1nc(=O)[nH]c(=O)s1`, the MIC with Candida albicans was 81 µg/mL (≈ 470 µM); in the assay with Trichophyton benhamiae it was 15 µg/mL (≈ 87.1 µM).

As for `O=c1nc(-c2ccco2)sc(=O)[nH]1`, the results for the MIC in the assay on Candida albicans and with Trichophyton benhamiae were 15 µg/mL (≈ 76.5 µM) and below 2 µg/mL, respectively.

In the case of `Cc1ccc(-c2nc(=O)[nH]c(=O)s2)cc1`, the minimal inhibitory concentration (MIC) against Candida albicans was above 250 µg/mL; in the assay with Trichophyton benhamiae, below 2 µg/mL.

Regarding `O=c1nc(Cc2cccnc2)sc(=O)[nH]1`, the MIC is 62 µg/mL (≈ 280 µM) with Candida albicans and 8 µg/mL (≈ 36.2 µM) against Trichophyton benhamiae.

Turning to `COc1ccc(-c2nc(=O)[nH]c(=O)s2)cc1`, the MIC with Candida albicans is 125 µg/mL (≈ 529 µM); in the assay with Trichophyton benhamiae, 8 µg/mL (≈ 33.9 µM).

Regarding `Oc1c(I)cc(Cl)c2cccnc12` [CLIOQUINOL], the MIC against Candida albicans was determined as 1 µg/mL (≈ 3.27 µM); against Trichophyton benhamiae it was 4 µg/mL (≈ 13.1 µM).

For the compound `O=c1nc(-c2cccs2)sc(=O)[nH]1`, the minimal inhibitory concentration (MIC) against Candida albicans stood at 62 µg/mL (≈ 292 µM); in the assay with Trichophyton benhamiae, 2 µg/mL (≈ 9.42 µM).

Regarding `O=c1nc(-c2ccc(Cl)cc2)sc(=O)[nH]1`, the minimum inhibitory concentration (MIC) with Candida albicans amounted to 15 µg/mL (≈ 62.3 µM); with Trichophyton benhamiae, 4 µg/mL (≈ 16.6 µM).

Turning to `CN(C)c1ccc(-c2nc(=O)[nH]c(=O)s2)cc1`, the figures for the MIC against Candida albicans and with Trichophyton benhamiae were above 125 µg/mL and 62 µg/mL (≈ 249 µM), respectively.

For the compound `O=c1nc(-c2ccc3c(c2)OCO3)sc(=O)[nH]1`, the MIC is above 250 µg/mL with Candida albicans and 125 µg/mL (≈ 500 µM) against Trichophyton benhamiae.

Take `O=c1nc(Cc2ccc3c(c2)OCO3)sc(=O)[nH]1`: the MIC with Candida albicans was found to be 125 µg/mL (≈ 473 µM); against Trichophyton benhamiae, 4 µg/mL (≈ 15.1 µM).

Regarding `O=c1nc(-c2ccccc2)sc(=O)[nH]1`, the results for the MIC against Candida albicans and against Trichophyton benhamiae were 8 µg/mL (≈ 38.8 µM) and below 2 µg/mL, respectively.

As for `CC(=O)c1ccc(-c2nc(=O)[nH]c(=O)s2)cc1`, the minimum inhibitory concentration (MIC) against Candida albicans was 31 µg/mL (≈ 125 µM); against Trichophyton benhamiae, below 2 µg/mL.
